Source: the supplement of paper PMC6335503

Legend:
Assay in all cases: cell viability, percent of DMSO control (CellTiter-Glo); higher = more viable cells
Details in all cases: 72 h
[1] = tested on: DFTD cell line T1 (06/2887)
Procedure: (§1)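 Eight-point dose titration of 41 screen hits in triplicate wells on four Tasmanian devil DFTD tumour cell lines (T1-T4) and devil fibroblasts, 384-well plates. Viability was read by CellTiter-Glo (ATP) after 72 h at 37 °C. Percent of control per plate: DMSO wells = 100%, positive-control wells = 0%.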

[2] = tested on: DFTD cell line T2 (05/2569)
Procedure: as §1

[3] = tested on: DFTD cell line T3 (06/0368)
Procedure: as §1

[4] = tested on: DFTD cell line T4 (07/0192)
Procedure: as §1

C=CC(=O)N1CCC(Oc2cc3c(Nc4ccc(Cl)c(Cl)c4F)ncnc3cc2OC)CC1 [Poziotinib (HM781-36B)]
cell viability [%]
Details	0.00617 µM	0.0185 µM	0.0556 µM	0.166667 µM	0.5 µM	1.5 µM	4.5 µM	13.5 µM
[1]	56.7	29.4	24.3	29.3	28	24.4	26.8	26.6
[2]	87.7	49.6	41.5	38.3	39	26.8	22.5	17
[3]	87	52.5	44	44.6	42.2	30.8	35.9	33
[4]	88.7	44.9	30.6	26.5	27.4	27.1	22.8	21.4

O=C(/C=C/c1cccc(S(=O)(=O)Nc2ccccc2)c1)NO [RLM 2-89]
cell viability [%]
Details	0.000617 µM	0.00185 µM	0.00556 µM	0.0167 µM	0.05 µM	0.15 µM	0.45 µM	1.35 µM
[1]	130	115	116	113	114	52.6	20.5	17.4
[2]	110	96.3	118	106	125	82.3	28.8	20.7
[3]	120	103	116	121	128	77.7	32.4	28.9
[4]	121	109	87.9	125	123	83.5	38.1	19.1

C=CC(=O)Nc1cccc(Nc2nc(Nc3ccc(N4CCN(C(C)=O)CC4)cc3OC)ncc2C(F)(F)F)c1 [Rociletinib (CO-1686, AVL-301)]
cell viability [%]
Details	0.00617 µM	0.0185 µM	0.0556 µM	0.166667 µM	0.5 µM	1.5 µM	4.5 µM	13.5 µM
[1]	121	114	113	92.4	80.6	41.4	16.9	4.81
[2]	119	108	108	104	86.5	63.1	33.7	12
[3]	127	113	94.5	99.1	101	58.2	40.4	17.4
[4]	116	101	102	89.6	88.6	56.6	32.4	11.9

Cn1cnc2c(F)c(Nc3ccc(Br)cc3Cl)c(C(=O)NOCCO)cc21.O=S(=O)(O)O [Selumetinib (AZD6244)]
cell viability [%]
Details	0.00617 µM	0.0185 µM	0.0556 µM	0.166667 µM	0.5 µM	1.5 µM	4.5 µM	13.5 µM
[1]	104	100	104	57	41	35.4	29.1	33.4
[2]	98.8	102	108	63	51.7	39.3	35.4	35.8
[3]	102	112	99.1	75.3	63.7	56.9	42.5	50.7
[4]	89	105	88	62.8	56.2	46	35	31.1
